Assay results published in ChEMBL document CHEMBL3758112, “Synthesis and pharmacological evaluation of trifluoromethyl containing 4-(2-pyrimidinylamino)benzamides as Hedgehog signaling pathway inhibitors” (Bioorg Med Chem, 2016).
Blank lines part the entries; values can stand above or below the compound they belong to.

Legend:
[1] = Inhibition of hedgehog signalling in mouse NIH3T3 cells stably transfected with Gli-luciferase construct incubated for 48 hrs by dual luciferase reporter gene assay; assay type: cell-based; settings: NIH3T3, 48 h
[2] = AUC (0 to t) in Sprague-Dawley rat at 1 mg/kg, iv measured during 2 mins to 24 hrs period post dose by LC-MS/MS method; assay type: ADME, organism-based; set-up: time 0.033-24 hr, dose 1 mg/kg, route intravenous; settings: in vivo
[3] = Half life in Sprague-Dawley rat at 1 mg/kg, iv measured during 2 mins to 24 hrs period post dose by LC/MS/MS method; assay type: ADME, organism-based; settings: in vivo
[4] = Clearance in Sprague-Dawley rat at 1 mg/kg, iv measured during 2 mins to 24 hrs period post dose by LC-MS/MS method; assay type: ADME, organism-based; settings: in vivo
[5] = Apparent volume of distribution in Sprague-Dawley rat at 1 mg/kg, iv measured during 2 mins to 24 hrs period post dose by LC-MS/MS method; assay type: ADME, organism-based; settings: in vivo, read-out: Vz
[6] = Cmax in Sprague-Dawley rat at 1 mg/kg, iv measured during 2 mins to 24 hrs period post dose by LC-MS/MS method; assay type: ADME, organism-based; set-up: dose 1 mg/kg, route intravenous; settings: in vivo
[7] = Mean residence time (0 to t) in Sprague-Dawley rat at 1 mg/kg, iv measured during 2 mins to 24 hrs period post dose by LC/MS/MS method; assay type: ADME, organism-based; settings: in vivo
NIH3T3 = assay: Potency index, ratio of vismodegib IC50 to compound IC50 for inhibition of hedgehog signalling in mouse NIH3T3 cells stably transfected with Gli-luciferase construct; assay type: cell-based

SMILES: CS(=O)(=O)c1ccc(C(=O)Nc2ccc(Cl)c(-c3ccccn3)c2)c(Cl)c1 [VISMODEGIB]
IC50 [1]: 7.2 nM
AUC(0-t) [2]: 2460 ng·h/mL

SMILES: O=C(c1ccc(Nc2ncc(C(F)(F)F)c(-c3ccc(OC(F)(F)F)nc3)n2)cc1)N1CCCC(N2CCOCC2)C1 (stereo unspecified)
IC50 [1]: > 500 nM

SMILES: Cc1ccc(CN2CCOCC2)cc1NC(=O)c1ccc(Nc2ncc(C(F)(F)F)c(-c3cnn(C)c3)n2)cc1
IC50 [1]: 24.5 nM

SMILES: Cc1ccc(CN(C)C)cc1NC(=O)c1ccc(Nc2ncc(C(F)(F)F)c(-c3ccc(OC(F)(F)F)cc3)n2)cc1
IC50 [1]: 18.2 nM

SMILES: Cc1ccc(CN2CCCC2)cc1NC(=O)c1ccc(Nc2ncc(C(F)(F)F)c(-c3cnn(C)c3)n2)cc1
IC50 [1]: 26.3 nM

SMILES: Cc1ccc(CN2CCOCC2)cc1NC(=O)c1ccc(Nc2ncc(C(F)(F)F)c(-c3cccnc3)n2)cc1
IC50 [1]: 56.2 nM

SMILES: COc1ccc(-c2nc(Nc3ccc(C(=O)Nc4cc(CN5CCCC5)ccc4C)cc3)ncc2C(F)(F)F)cn1
IC50 [1]: 9.35 nM

SMILES: CCN1CCN(Cc2ccc(C)c(NC(=O)c3ccc(Nc4ncc(C(F)(F)F)c(-c5ccc(OC(F)(F)F)cc5)n4)cc3)c2)CC1
IC50 [1]: 62.8 nM

SMILES: Cc1ccc(CN2CCOCC2)cc1NC(=O)c1ccc(Nc2ncc(C(F)(F)F)c(-c3ccccc3)n2)cc1
IC50 [1]: 102 nM
AUC(0-t) [2]: 807 ng·h/mL
half-life [3]: 2.32 h
clearance [4]: 20.9 mL/min/kg
Vd [5]: 4.13 L/kg
Cmax [6]: 1190 ng/mL
MRT last [7]: 1.23 h

SMILES: O=C(NC1CCN(C(=O)CO)CC1)c1ccc(Nc2ncc(C(F)(F)F)c(-c3ccc(OC(F)(F)F)nc3)n2)cc1
IC50 [1]: > 500 nM

SMILES: Cc1ccc(CN(C)C)cc1NC(=O)c1ccc(Nc2ncc(C(F)(F)F)c(-c3ccccc3)n2)cc1
IC50 [1]: 24.9 nM

SMILES: CCn1cc(-c2nc(Nc3ccc(C(=O)Nc4cc(CN5CCOCC5)ccc4C)cc3)ncc2C(F)(F)F)cn1
IC50 [1]: 16.9 nM

SMILES: Cc1ccc(CN2CCOCC2)cc1NC(=O)c1ccc(Nc2ncc(C(F)(F)F)c(-c3ccccn3)n2)cc1
IC50 [1]: 14.2 nM
AUC(0-t) [2]: 826 ng·h/mL
half-life [3]: 1.03 h
clearance [4]: 20.1 mL/min/kg
Vd [5]: 1.8 L/kg
Cmax [6]: 1420 ng/mL
MRT last [7]: 0.93 h

Stronger by IC50 [1], values ahead:

IC50 [1]: 4.24 nM
SMILES: Cc1ccc(CN2CCOCC2)cc1NC(=O)c1ccc(Nc2ncc(C(F)(F)F)c(-c3ccc(C#N)cc3)n2)cc1

IC50 [1]: 1.44 nM
AUC(0-t) [2]: 1960 ng·h/mL
half-life [3]: 8.63 h
clearance [4]: 7.82 mL/min/kg
Vd [5]: 5.88 L/kg
Cmax [6]: 2220 ng/mL
MRT last [7]: 4.95 h
SMILES: Cc1ccc(CN2CCOCC2)cc1NC(=O)c1ccc(Nc2ncc(C(F)(F)F)c(-c3ccc(OC(F)(F)F)cc3)n2)cc1
Ratio IC50 (NIH3T3): 5

IC50 [1]: 1.6 nM
SMILES: Cc1cccc(C)c1NC(=O)c1ccc(Nc2ncc(F)c(-c3ccc(OC(F)(F)F)cc3)n2)cc1

IC50 [1]: 1.3 nM
SMILES: Cc1cnc(Nc2ccc(C(=O)Nc3c(C)cccc3C)cc2)nc1-c1ccc(OC(F)(F)F)cc1

IC50 [1]: 4.23 nM
SMILES: Cc1ccc(CN2CCCC2)cc1NC(=O)c1ccc(Nc2ncc(C(F)(F)F)c(-c3ccc(OC(F)(F)F)cc3)n2)cc1

IC50 [1]: 3.12 nM
SMILES: Cc1ccc(CN2CCCCC2)cc1NC(=O)c1ccc(Nc2ncc(C(F)(F)F)c(-c3ccc(OC(F)(F)F)cc3)n2)cc1

IC50 [1]: 5.19 nM
AUC(0-t) [2]: 1240 ng·h/mL
half-life [3]: 9.25 h
clearance [4]: 11.6 mL/min/kg
Vd [5]: 9.22 L/kg
Cmax [6]: 844 ng/mL
MRT last [7]: 7.15 h
SMILES: Cc1ccc(CN2CCN(C)CC2)cc1NC(=O)c1ccc(Nc2ncc(C(F)(F)F)c(-c3ccc(OC(F)(F)F)cc3)n2)cc1
